Results published in US20130123253A1, “MODULATORS OF CENTRAL NERVOUS SYSTEM NEUROTRANSMITTERS” (HUMAN BIOMOLECULAR RESEARCH INSTITUTE, priority 2004, published 2013).
Where two headings read alike, the source gives them in different places.

Key:
DAT, SERT or NET = assay: Binding and reuptake inhibition in HEK cells containing DAT, SERT or NET (overall statement); type: cell-based, human; details: for transporter inhibition potency: DAT, SERT, NET binding and reuptake
Procedure: The data cannot be directly compared with Table 1 because the compounds of Table 3 were mixtures of diastereomers and isomers at all centers of chirality.
Transporter Binding Assays. […] Cells were scraped from plates and centrifuged for […] at 30,000×g and the pellet was re-suspended in 0.32 M sucrose with a Polytron at a setting of 1 for 5 sec. […] Membranes were pre-incubated with test compounds for […] before addition of [^125I]RTI-55. […] The incubations were done in the dark and terminated by filtration onto a Whatman GF/C filters using a 96-well Tomtech cell harvester (Tomtech, Orange, Conn.). Scintillation fluid was added to each filter spot and radioactivity remaining on the filter was determined using a Wallace β-plate reader (Wallace Labs, Cranbury, N.J.).

rodent PDE4 = assay: Inhibition of rodent PDE4 (rolipram binding sites); details: Table 4
Procedure: IC50 values for inhibitor interaction with this site were calculated by nonlinear regression analysis of competition curves for unlabeled PDE4 inhibitors; Ki values were determined according to the method of Cheng and Prusoff (1973). […] Competition curves for the PDE4 inhibitors were subjected to nonlinear regression analysis and IC50 values with which the inhibitors bind to each of the binding sites was determined; K1 values were determined according to the method of Cheng and Prusoff (1973).

human PDE4D3 = molecular target: T1, human PDE4D3 (Homo sapiens, UniProt Q08499); assay: Inhibition of cAMP hydrolysis by recombinant human PDE4D3; type: biochemical
T1 construct: made in house; host or cells: Cos 7 cells (construct and cells a gift from Dr. Conti, Stanford)
T1 sequence (Q08499 1-673 isoform Q08499-2): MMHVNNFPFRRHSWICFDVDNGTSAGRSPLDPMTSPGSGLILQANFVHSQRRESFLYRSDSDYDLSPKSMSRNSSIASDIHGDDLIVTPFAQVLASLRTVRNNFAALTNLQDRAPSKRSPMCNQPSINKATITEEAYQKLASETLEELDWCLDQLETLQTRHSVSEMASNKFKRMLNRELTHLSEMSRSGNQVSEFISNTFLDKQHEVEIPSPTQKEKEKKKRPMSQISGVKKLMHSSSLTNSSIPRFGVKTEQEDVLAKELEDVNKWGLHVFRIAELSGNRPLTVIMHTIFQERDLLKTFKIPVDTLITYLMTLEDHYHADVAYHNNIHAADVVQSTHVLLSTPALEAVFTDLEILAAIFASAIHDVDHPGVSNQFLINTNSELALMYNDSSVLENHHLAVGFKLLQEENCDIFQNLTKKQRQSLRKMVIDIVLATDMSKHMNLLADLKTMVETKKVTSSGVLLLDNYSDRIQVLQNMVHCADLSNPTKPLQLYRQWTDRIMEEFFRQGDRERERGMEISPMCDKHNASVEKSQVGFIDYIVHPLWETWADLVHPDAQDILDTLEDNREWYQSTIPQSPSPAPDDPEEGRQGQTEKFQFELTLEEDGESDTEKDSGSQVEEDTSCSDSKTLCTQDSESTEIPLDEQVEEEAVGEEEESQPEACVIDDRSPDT
Procedure: The PDE construct was transfected into Cos 7 cells in round culture dish (100×20 mm). The cells were then harvested and homogenized with lysis buffer. The crude homogenate was spun at maximum speed in a microfuge. The supernatant fluid was saved as an extract. […] The PDE construct and Cos 7 cells were a kind gift from Dr. Conti at the Stanford University School of Medicine.
(§1) PDE4 enzyme assays were carried out as described previously. Studies with recombinant PDE4 enzymes were carried out in the laboratory of Professor Marco Conti (Stanford University, Palo Alto, Calif.).

human PDE4B3 = molecular target: T2, human PDE4B3 (Homo sapiens, UniProt Q07343); assay: Inhibition of cAMP hydrolysis by recombinant human PDE4B3; type: biochemical; details: Example 29
T2 construct: made in house
T2 sequence (Q07343 1-721 isoform Q07343-3): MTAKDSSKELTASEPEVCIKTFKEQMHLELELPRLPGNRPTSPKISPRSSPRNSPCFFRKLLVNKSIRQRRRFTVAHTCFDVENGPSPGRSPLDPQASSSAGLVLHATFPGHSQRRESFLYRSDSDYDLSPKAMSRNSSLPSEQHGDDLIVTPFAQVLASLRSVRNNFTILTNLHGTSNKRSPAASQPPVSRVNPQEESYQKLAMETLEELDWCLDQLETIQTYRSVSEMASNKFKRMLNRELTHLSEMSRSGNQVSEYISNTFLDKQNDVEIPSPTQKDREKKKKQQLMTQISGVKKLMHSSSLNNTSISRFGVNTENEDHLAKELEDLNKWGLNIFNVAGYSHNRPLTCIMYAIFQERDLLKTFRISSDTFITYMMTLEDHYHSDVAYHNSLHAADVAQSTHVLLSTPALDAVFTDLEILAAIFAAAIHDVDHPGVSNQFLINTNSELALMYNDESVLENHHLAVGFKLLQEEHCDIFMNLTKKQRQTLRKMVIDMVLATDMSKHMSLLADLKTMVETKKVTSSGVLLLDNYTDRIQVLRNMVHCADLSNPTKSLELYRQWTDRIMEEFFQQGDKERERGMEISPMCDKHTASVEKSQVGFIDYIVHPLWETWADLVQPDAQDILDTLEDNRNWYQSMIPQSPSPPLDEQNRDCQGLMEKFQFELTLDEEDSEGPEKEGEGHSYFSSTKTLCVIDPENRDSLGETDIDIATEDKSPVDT
Procedure: as §1

human PDE4A1 = molecular target: T3, human PDE4A1 (Homo sapiens, UniProt P27815); assay: Inhibition of cAMP hydrolysis by recombinant human PDE4A1; type: biochemical
T3 construct: made in house
T3 sequence (P27815 1-647 isoform P27815-4): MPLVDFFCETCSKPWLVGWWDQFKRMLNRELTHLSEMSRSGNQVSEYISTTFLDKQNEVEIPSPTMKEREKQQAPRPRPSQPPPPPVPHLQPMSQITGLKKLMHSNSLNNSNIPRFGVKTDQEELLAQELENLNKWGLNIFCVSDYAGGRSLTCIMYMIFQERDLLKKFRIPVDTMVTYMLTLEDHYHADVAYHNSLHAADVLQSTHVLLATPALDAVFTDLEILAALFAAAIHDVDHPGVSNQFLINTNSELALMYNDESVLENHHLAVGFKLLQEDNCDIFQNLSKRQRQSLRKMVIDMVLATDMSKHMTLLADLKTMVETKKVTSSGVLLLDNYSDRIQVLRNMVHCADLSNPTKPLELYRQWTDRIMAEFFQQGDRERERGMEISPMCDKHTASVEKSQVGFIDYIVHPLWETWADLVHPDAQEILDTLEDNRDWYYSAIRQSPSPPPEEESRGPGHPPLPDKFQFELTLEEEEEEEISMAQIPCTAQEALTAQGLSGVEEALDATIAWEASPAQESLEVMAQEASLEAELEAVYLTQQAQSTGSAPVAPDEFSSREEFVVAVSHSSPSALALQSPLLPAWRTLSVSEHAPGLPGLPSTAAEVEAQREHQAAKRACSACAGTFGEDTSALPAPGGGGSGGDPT
Procedure: as §1

mice = assay: Morris water maze test; type: in vivo, mouse; details: 3 mg/kg, compared to control mice
Procedure: Compounds 19 and 115 were tested in a Morris water maze test. The escape latency (time to climb onto a hidden platform) for each mouse was recorded as a memory test. […] Compared to a group of control mice, compound 19 and 115 caused a 30% improvement in memory at 3 mg/kg. […] This is not completely unexpected as SSRIs often require repeated dosing to see a large and significant effect. […] Multiple dosing likely will increase the efficacy of the compounds tested.

ICR mice = assay: Forced-swim test in ICR mice; type: in vivo, mouse
Procedure: Forty male ICR mice, weighed 26.2±0.3 g, were housed in a temperature-controlled room (22-23° C.) and maintained on a 12-hour on 12-hour off light cycle (lights on at 6:00 AM). Water and food were freely available in the home cages. […] Saline containing the same percentage of DMSO was used as vehicle. The lower doses were tested followed by the larger doses 1 week later, when the mice were again randomly divided into four groups as described above. The forced-swim test (FST) was carried out as described previously. Mice were given a swimming pretest session, once a day for two successive days. Twenty-four hours after the last session, mice were injected vehicle or the lower dose of each test compound by the i.p. route 30 min prior to the FST. One week later, administration of the larger dose of each of the test compounds was repeated. During the pretest and test sessions, each mouse was placed for 6 min in a plastic cylinder (45 cm high×20 cm diameter), which was filled to a depth of 28 cm with water (23±1° C.). The duration of immobility, which was defined as floating in an upright position without additional activity other than that necessary for the animal to keep its head above water, was recorded.

[1] = Mouse liver microsome stability assay; type: in vitro ADME
Procedure: A typical assay mixture contained either mouse or rat liver microsomes (0.5 mg of protein), […] potassium phosphate buffer (pH 7.4), 40 μM test compounds, 0.5 mM NADP+, 0.5 mM glucose-6-phosphate, 5 IU/mL glucose-6-phosphate dehydrogenase, 1 mg/mL diethylenetriaminepentaacetic acid (DETAPAC) and 5 mM MgCl2 in a final incubation volume of 0.1 mL. After 0, 10, 25, 40 and […], the incubations were stopped by the addition of 1 ml CH2Cl2/2-propanol (3:1 v:v). The mixture was centrifuged at 12,000×g for 1 min, and the organic layer was separated from the aqueous fraction. The organic fraction was evaporated with a stream of argon and the residue was taken up in methanol (200 μL) and injected into the HPLC system described above.
(§2) Microsomal incubations (final volume 0.25 mL) with the SSRIs, dual PDE4 inhibitor/SSRIs or PDE4 inhibitor was done with an HPLC assay as described above. Diluted stocks of either mouse, human or rat liver microsomes (0.5 mg of protein), […] potassium phosphate buffer (pH 7.4), 0.5 mM NADI)^+, 0.5 mM glucose-6-phosphate, 5 IU/mL glucose-6-phosphate dehydrogenase, 0.6 mM DETAPAC, and 3 mM MgC12 were combined and placed on ice. For a metabolic stability assay, either vehicle or 40 μM test compound was added and the incubation was initiated at 37° C. with constant shaking. After 0, 10, 25, 40 and 60 min, the incubations were stopped by the addition of 1 mL CH2Cl2/2-propanol (3:1, v:v). After thorough mixing, the organic layer was separated from the aqueous portion by centrifugation at 12,000×g. The organic material was evaporated with a stream of argon. The residue was dissolved in methanol (200 μL) and the sample was analyzed by HPLC.

[2] = Human liver microsome stability assay; type: in vitro ADME; details: for half-life at 40 μM: human, liver microsomes, pH 7.4, Table 16, read-out: HLM t1/2
Procedure: as §2

Swiss-Webster mice = assay: animal or person; type: in vivo, mouse
Procedure: A time course/dose response study of cocaine-induced locomotor stimulation was conducted beginning Feb. 21, 2000, according to a locomotor activity studies time course protocol. […]. A panel of infrared beams (16 beams) and corresponding photodetectors were located in the horizontal direction along the sides of each activity chamber. A 7.5-W incandescent light above each chamber provided dim illumination. Fans provided an 80-dB ambient noise level within the chamber. […]. In all studies, horizontal activity (interruption of photocell beams) was measured for 8 hours within 10-min periods, beginning at 0800 hrs (2 hours after lights on). Testing was conducted with one mouse per activity chamber.
. Behavioral observations were recorded on each mouse at 30, 120 and 480 minutes following 100 mg/kg compound 31,646.

Balb/c mice = assay: Forced-swim test in Balb/c mice; type: in vivo, mouse; details: for duration of immobility, forced-swim test, acute: i.p. 30 min prior, fluoxetine 20 mg/kg, test compounds 10 mg/kg
Procedure: The study was conducted according to a standard operation procedure and in accordance with all Federal regulations. Water and food were freely available in the home cages. […] Mice were given a swimming pretest session, once a day for two successive days. […] During the pretest and test sessions, each mouse was placed for […] in a plastic cylinder (45 cm high×20 cm diameter), which was filled to a depth of 28 cm with water (23±1° C.). The duration of immobility, which was defined as floating in an upright position without additional activity other than that necessary for the animal to keep its head above water, was recorded. For the subchronic administration tests, the animals were separated as above and vehicle or chemicals were given by i.p. administration 23, 5 and 1 hr before the FST. The subchronic experiments were done similar to the study described above except for the pretest training that was not carried out.
Mice in the first session were treated with vehicle or the drugs acutely, whereas mice in the second sessions were treated subchronically, i.e., vehicle or drugs were given i.p. 23, 5, and 1 hr before the FST. The experiment was performed similar to Experiment 1 except for the pretest training, which was not carried out in the second session.

[3] = Example 29, read-out: Ki, human PDE4D3
[4] = Example 29, read-out: Ki, human PDE4A1
[5] = Table 14, read-out: Human PDE4A1 Ki

2-(5-Bromo-pentyl)-4-(3,4-dimethoxy-phenyl-4a,5,8,8a-tetrahydro-2H-phthalazin-1-one [Compound 20]
transporter inhibition potency (DAT, SERT or NET): no transporter inhibition potency

COc1ccc(C2=NNC(=O)C3CC=CCC23)cc1OC (racemic) [Compound 19, 4-(3,4-Dimethoxy-phenyl)-4a,5,8,8a-tetrahydro-2H-phthalazin-1-one, reference compound]
pIC50 (rodent PDE4): 6.7 | Ki (human PDE4D3; Table 5, recombinant human PDE 4D3, read-out: Ki): 6.3 nM | transporter inhibition potency (DAT, SERT or NET): no transporter inhibition potency

COc1ccc(C2=NNC(=O)[C@@H]3CC=CC[C@H]23)cc1OC (racemic) [Compound 19, 4-(3,4-Dimethoxy-phenyl)-4a,5,8,8a-tetrahydro-2H-phthalazin-1-one, reference compound]
PDE4A1/PDE4D3 inhibitory selectivity ratio (human PDE4D3): < 159 fold | PDE4B3/PDE4D3 inhibitory selectivity ratio (human PDE4D3): 40 fold | Ki (human PDE4D3; [3]): 6.3 nM | Ki (human PDE4B3): 250 nM | Ki (human PDE4A1; [4]): > 1000 nM | Ki (human PDE4A1; [5]): < 1000 nM | improvement in memory (escape latency) (mice): 30% | immobility, forced-swim test, acute, higher dose (ICR mice; 3 mg/kg i.p., vs vehicle, P<0.05): significantly reduced immobility | duration of immobility, forced-swim test, acute (ICR mice; 0.3 and 3 mg/kg i.p.): decreased duration of immobility in a dose-dependent manner | half life, mouse liver microsomes ([1]; NADPH): 3.52 h | MLM t1/2 ([1]; Table 16): 3.522 h | half-life at 40 μM [2]: > 1 h | effect on RTI-55 binding or reuptake at any transporter (DAT, SERT or NET; hDAT, hSERT, hNET): essentially no measurable effect

COC(=O)[C@H]1[C@@H](OC(=O)c2ccccc2)C[C@@H]2CC[C@H]1N2C [Cocaine, reference compound]
onset of stimulant effects after injection (Swiss-Webster mice; 10 and 20 mg/kg): ≤ 10 min | ED50 (Swiss-Webster mice; Mus musculus, IP, 0-30 min, read-out: ED50 (dose producing 1/2 maximal stimulant activity)): 5.8 mg/kg | dose at maximum horizontal activity (Swiss-Webster mice; estimated from fitted curve): 23.4 mg/kg | maximum horizontal activity (Swiss-Webster mice; estimated from fitted curve, 0-30 min): 5520 counts/10 min

COc1ccc(F)cc1CCC1CCC(CCN)O1 (stereo not drawn) [Compound 14, 2-Aminoethyl-5-(2′-methoxy-5′-fluorophenethyl)tetrahydrofuran]
immobility, forced-swim test, subchronic (Balb/c mice; i.p. 23, 5 and 1 hr prior, fluoxetine 10 mg/kg, 18k/l or 14 10 mg/kg, 21 1 mg/kg): did not change immobility | duration of immobility, forced-swim test, acute (Balb/c mice): did not markedly alter the duration of immobility | immobility, forced-swim test, acute (ICR mice; 10 and 30 mg/kg i.p.): tended to decrease immobility, but it was not statistically significant | half life, mouse liver microsomes ([1]; NADPH): 0.933 h | MLM t1/2 ([1]; Table 16): 0.933 h

COc1ccc(F)cc1CCCC1CCC(CCN)O1 (stereo not drawn) [Compound 15, 2-Aminoethyl-5-(3′-(2″-methoxy-5″-fluorophenyl)-1′-propyl)tetrahydrofuran]
duration of immobility, forced-swim test, acute (Balb/c mice): did not markedly alter the duration of immobility

COc1ccc(F)c(CCCC2CCC(CCNCCCCCN3N=C(c4ccc(OC)c(OC)c4)C4CC=CC[C@H]4C3=O)O2)c1 (stereo partly drawn) [Compound 22]
pIC50 (rodent PDE4): 6.3 | Ki (human PDE4D3; [3]): 1.2 nM | Ki (human PDE4B3): 500 nM | Ki (human PDE4A1; [4]): > 1000 nM | Ki (human PDE4A1; [5]): < 1000 nM | metabolism in mouse liver microsomes ([1]; NADPH, up to 60 min): No detectable metabolic instability | half-life at 40 μM ([1]; mouse, liver microsomes, pH 7.4, Table 16, read-out: MLM t1/2): > 1 h | metabolism in human liver microsomes ([2]; NADPH, up to 60 min): No detectable metabolic instability | half-life at 40 μM [2]: > 1 h

NCCC1CCC(CCc2ccccc2)O1 (stereo not drawn) [Compound 54, 2-(Aminoethyl)-5-(phenethyl)tetrahydrofuran]
other behavioral observations (Swiss-Webster mice; 100 mg/kg, 30, 120 and 480 minutes): No unusual effects were observed | onset of depressant effects after injection (Swiss-Webster mice; 30 and 100 mg/kg): ≤ 10 min | ID50 (dose producing 1/2 maximal depressant activity) (Swiss-Webster mice; IP, 0-30 min after injection): 39.8 mg/kg | CNS stimulation (Swiss-Webster mice; mouse, in vivo): did not cause CNS stimulation

COc1ccc(F)cc1CCC1CCC(CCNCCCCCN2N=C(c3ccc(OC)c(OC)c3)C3CC=CC[C@H]3C2=O)O1 (stereo partly drawn) [Compound 115]
improvement in memory (escape latency) (mice): 30%

COc1ccc(C2CNC(=O)C2)cc1OC1CCCC1 (stereo not drawn) [Rolipram, reference compound]
forced-swim test behavior, acute (ICR mice; 0.5 mg/kg): did not alter FST behavior
